Measurements from ChEMBL document CHEMBL1201862, “PubChem BioAssay data set” (2004).
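Test compounds were applied to cells in 96-well plates for 48 hours at 5 doses. At the GI50, growth is halved.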 Active and inactive are the calls of the source. Rule as the data show it: active = GI50 up to about 1.1 µM and inactive = higher.

How the values were obtained:
Experiment in all cases: inhibition of tumour cell growth, NCI panel, 48 h
SK-OV-3 = test system: SK-OV-3
UO-31 = test system: UO-31
RPMI-8226 = test system: RPMI-8226
NCI-H460 = test system: NCI-H460
COLO 205 = test system: COLO 205
HT-29 = test system: HT-29
SN12C = test system: SN12C
ACHN = test system: ACHN
UACC-62 = test system: UACC-62
A549 = test system: A549
HOP-92 = test system: HOP-92
SNB-78 = test system: SNB-78
OVCAR-5 = test system: OVCAR-5
LXFL 529 = test system: LXFL 529
RXF 393 = test system: RXF 393
MOLT-4 = test system: MOLT-4
HOP-62 = test system: HOP-62
IGROV-1 = test system: IGROV-1
SK-MEL-2 = test system: SK-MEL-2
NCI-H23 = test system: NCI-H23
M14 = test system: M14
HOP-18 = test system: HOP-18
HCC 2998 = test system: HCC 2998
OVCAR-4 = test system: OVCAR-4
DMS-273 = test system: DMS-273
A498 = test system: A498
CCRF-CEM = test system: CCRF-CEM
SNB-19 = test system: SNB-19
SK-MEL-5 = test system: SK-MEL-5
Malme-3M = test system: Malme-3M
OVCAR-8 = test system: OVCAR-8
M19-MEL = test system: M19-MEL
OVCAR-3 = test system: OVCAR-3
NCI-H522 = test system: NCI-H522
SF-539 = test system: SF-539
EKVX = test system: EKVX
SF-295 = test system: SF-295
DLD-1 = test system: DLD-1
K562 = test system: K562
CAKI-1 = test system: CAKI-1
KM-20L2 = test system: KM-20L2
SK-MEL-28 = test system: SK-MEL-28
DMS-114 = test system: DMS-114
HCT-116 = test system: HCT-116
SW-620 = test system: SW-620
KM12 = test system: KM12
HCT-15 = test system: HCT-15
SF-268 = test system: SF-268
SNB-75 = test system: SNB-75
NCI-H226 = test system: NCI-H226
HL-60 = test system: HL-60
786-0 = test system: 786-0
U-251 = test system: U-251
UACC-257 = test system: UACC-257
LOX IMVI = test system: LOX IMVI
TK-10 = test system: TK-10
SR = test system: SR

For `CSc1ccc2c(cc1=O)C(NC(=O)c1ccccc1)CCc1cc(O)c(O)c(O)c1-2` (stereo not drawn), the GI50 (SK-OV-3) was 5.71 µM (inactive), the GI50 (UO-31) was 77.8 µM (inactive) and the GI50 (RPMI-8226) was 19.1 µM (inactive). For the same compound, the GI50 (NCI-H460) was 19 µM (inactive), the GI50 (COLO 205) was 23.2 µM (inactive) and the GI50 (HT-29) was 32.3 µM (inactive). For the same compound, the GI50 (SN12C) was 18.4 µM (inactive), the GI50 (ACHN) was 37.6 µM (inactive) and the GI50 (UACC-62) was 5.05 µM (inactive). For the same compound, the GI50 (A549) was 30.5 µM (inactive), the GI50 (HOP-92) was 4.06 µM (inactive) and the GI50 (SNB-78) was 6.79 µM (inactive). The GI50 (OVCAR-5) was > 100 µM (inactive), the GI50 (LXFL 529) was 23.4 µM (inactive) and the GI50 (RXF 393) was 24.5 µM (inactive). The GI50 (MOLT-4) was 21.3 µM (inactive), the GI50 (HOP-62) was 6.01 µM (inactive) and the GI50 (IGROV-1) was 22 µM (inactive). For the same compound, the GI50 (SK-MEL-2) was 5.5 µM (inactive), the GI50 (NCI-H23) was 4.37 µM (inactive) and the GI50 (M14) was 15.6 µM (inactive). The GI50 (HOP-18) was > 100 µM (inactive), the GI50 (HCC 2998) was 4.84 µM (inactive) and the GI50 (OVCAR-4) was 16.3 µM (inactive). The GI50 (DMS-273) was 26.9 µM (inactive), the GI50 (A498) was 22.3 µM (inactive) and the GI50 (CCRF-CEM) was 6.73 µM (inactive). The GI50 (SNB-19) was 5.69 µM (inactive), the GI50 (SK-MEL-5) was 2.61 µM (inactive) and the GI50 (Malme-3M) was 7.14 µM (inactive). The GI50 (OVCAR-8) was 37.4 µM (inactive), the GI50 (M19-MEL) was 4.94 µM (inactive) and the GI50 (OVCAR-3) was 2.51 µM (inactive). For the same compound, the GI50 (NCI-H522) was 17.1 µM (inactive), the GI50 (SF-539) was 3.15 µM (inactive) and the GI50 (EKVX) was 6.22 µM (inactive). For the same compound, the GI50 (SF-295) was 4.22 µM (inactive), the GI50 (DLD-1) was 16.7 µM (inactive) and the GI50 (K562) was 10.9 µM (inactive). The GI50 (CAKI-1) was 27.6 µM (inactive), the GI50 (KM-20L2) was 1.81 µM (inactive) and the GI50 (SK-MEL-28) was 24.5 µM (inactive). The GI50 (DMS-114) was 26.2 µM (inactive), the GI50 (HCT-116) was 18.5 µM (inactive) and the GI50 (SW-620) was 15.7 µM (inactive). For the same compound, the GI50 (KM12) was 4.81 µM (inactive), the GI50 (HCT-15) was 18.1 µM and the GI50 (SF-268) was 22.9 µM (inactive). For the same compound, the GI50 (SNB-75) was 2.91 µM (inactive), the GI50 (NCI-H226) was 21.2 µM (inactive) and the GI50 (HL-60) was 7.43 µM (inactive). For the same compound, the GI50 (786-0) was 29.4 µM (inactive), the GI50 (U-251) was 6.37 µM (inactive) and the GI50 (UACC-257) was 15.3 µM (inactive). The GI50 (LOX IMVI) was 16.4 µM (inactive) and the GI50 (TK-10) was 52.8 µM (inactive).

`NC(CCC(=O)NC(CSC(=O)N(O)c1ccc(Br)cc1)C(=O)NCC(=O)O)C(=O)O` (stereo not drawn) was tested, and the GI50 (SK-OV-3) was 29.2 µM (inactive), the GI50 (UO-31) was 90.4 µM (inactive) and the GI50 (RPMI-8226) was 66.4 µM (inactive). The GI50 (COLO 205) was > 100 µM (inactive), the GI50 (ACHN) was 25.1 µM (inactive) and the GI50 (UACC-62) was > 100 µM (inactive). For the same compound, the GI50 (SNB-78) was > 100 µM (inactive), the GI50 (LXFL 529) was 46.9 µM (inactive) and the GI50 (IGROV-1) was > 100 µM (inactive). The GI50 (M14) was 30 µM (inactive), the GI50 (HOP-18) was 38.2 µM (inactive) and the GI50 (DMS-273) was > 100 µM (inactive). For the same compound, the GI50 (A498) was > 100 µM (inactive), the GI50 (CCRF-CEM) was > 100 µM (inactive) and the GI50 (SNB-19) was > 100 µM (inactive). The GI50 (SK-MEL-5) was > 100 µM (inactive), the GI50 (Malme-3M) was > 100 µM (inactive) and the GI50 (OVCAR-8) was > 100 µM (inactive). The GI50 (SR) was 81.7 µM (inactive), the GI50 (M19-MEL) was > 100 µM (inactive) and the GI50 (NCI-H522) was > 100 µM (inactive). For the same compound, the GI50 (DLD-1) was 86.5 µM (inactive), the GI50 (K562) was 76.2 µM (inactive) and the GI50 (CAKI-1) was 70.3 µM (inactive). For the same compound, the GI50 (KM-20L2) was 35.2 µM (inactive), the GI50 (DMS-114) was > 100 µM (inactive) and the GI50 (HCT-116) was 88.5 µM (inactive). For the same compound, the GI50 (HCT-15) was 77.6 µM, the GI50 (NCI-H226) was > 100 µM (inactive) and the GI50 (HL-60) was > 100 µM (inactive). For the same compound, the GI50 (LOX IMVI) was 61.5 µM (inactive) and the GI50 (TK-10) was > 100 µM (inactive).
